Reference: publication PMC11054303, “Design and Synthesis of Novel N-Benzylidene Derivatives of 3-Amino-4-imino-3,5-dihydro-4H-chromeno[2,3-d]pyrimidine under Microwave, In Silico ADME Predictions, In Vitro Antitumoral Activities and In Vivo Toxicity” (Pharmaceuticals, 2024)

Tests used:
Huh7 D12 = assay: Antiproliferative assay, Huh7 D12; assay type: cell-based, human; details: for IC50: Homo sapiens, Huh-7D12, 48 h incubation, average of three assays, standard error ± 0.5 μM; for Selectivity Index (SI) Huh7 D12: SI = IC50 fibroblasts/IC50 on Huh7 D12
Description: (§1) The potential antiproliferative activity of these novel 3-(N-phenylmethyliden)amino-4-imino-3,5-dihydro-4H-chromeno[2,3-d]pyrimidine 10(a-i) and 10-(N-phenylmethyliden)amino-11-imino-11H-naphto[1′,2′:5,6]pyrano[2,3-d]pyrimidine 10(j-l) was evaluated in a panel of eight tumoral cell lines and in diploid skin fibroblasts used as normal cell lines for control. For these antitumor assays, chosen cell lines represent diverse types of human cancer, which are, respectively, human hepatocellular carcinoma (Huh7 D12), human colon adenocarcinoma (Caco2), human breast adenocarcinoma (MDA-MB231), MDA-MB468 for human breast carcinoma which correspond to the Triple Negative Breast Cancer (TNBC), human colon carcinoma (HCT116), PC3 as cell line initiated from bone metastasis of grade IV prostatic adenocarcinoma from a person, MCF7 as breast cancer line isolated from a person and PANC1, as human pancreatic cancer cell line. The potential antiproliferative activity was preliminarily evaluated in vitro at a 25 μM single dose.
(§2) The IC50 was calculated from the full dose-response curve and used as a parameter for the antiproliferative activity of the new compounds.
(§3) Skin diploid fibroblastic cells were provided by BIOPREDIC International Company (Rennes, France). Huh-7D12 (Ref ECACC: 01042712), Caco2 (Ref ECACC: 86010202), MDA-MB-231 (Ref ECACC: 92020424), MDA-MB-468, HCT-116 (Ref ECACC: 91091005), PC3 (Ref ECACC: 90112714), and MCF7 cell lines were obtained from the ECACC collection. PANC1 cell lines, a generous gift of LBAI Inserm 1227 (Brest, France). Cells were grown according to ECACC recommendations in DMEM for Huh-D12, MDA-MB-231, MDA-MB-468 and fibroblast, in EMEM for Caco2, in McCoy’s for HCT-116 and RPMI for PC3 at 37 °C and 5% CO2. All culture media with 10% of FBS, 1% of penicillin-streptomycin and 2 mM glutamine.
(§4) Chemicals were solubilized in DMSO at a concentration of 10 mM (stock solution) and diluted in a culture medium to the desired final concentrations. […] The toxicity test of the chemicals on these cells was as follows: 2 × 10^3 cells for HCT-116 cells or 4 × 10^3 for the other cells were seeded in 96-multi-well plates in triplicate and left for 24 h for attachment, spreading and growing. Then, cells were exposed for 48 h to increasing concentrations of chemicals, ranging from 0.1 μM to 25 μM, in a final volume of 120 μL of culture medium. After 48 h of treatment, cells were washed in PBS and fixed in a cooled 90% ethanol/5% acetic acid solution for 20 min. The nuclei were stained with Hoechst 3342 (B2261 Merck Sigma-Aldrich) and counted. Image acquisition and analysis were performed using automated imaging analysis with a Cellomics Arrayscan VTI/HCS Reader (Thermo/Scientific, Waltham, MA, USA). The survival percentages were calculated as the percentage of cell number after chemical treatment over cell number after DMSO treatment. The IC50 was graphically determined.

MCF7 = assay: Antiproliferative assay, MCF7; assay type: cell-based, human; details: for IC50: Homo sapiens, MCF7, 48 h incubation, average of three assays, standard error ± 0.5 μM; for Selectivity Index (SI) MCF7: SI = IC50 fibroblasts/IC50 on MCF7
Description: as §1, §2, §3, §4

MDA MB468 = assay: Antiproliferative assay, MDA MB468; assay type: cell-based, human; details: for IC50: Homo sapiens, MDA-MB-468, 48 h incubation, average of three assays, standard error ± 0.5 μM; for Selectivity Index (SI) MDA MB468: SI = IC50 fibroblasts/IC50 on MDA MB468
Description: as §1, §2, §3, §4

PC3 = assay: Antiproliferative assay, PC3; assay type: cell-based, human; details: for IC50: Homo sapiens, PC-3, 48 h incubation, average of three assays, standard error ± 0.5 μM; for Selectivity Index (SI) PC3: SI = IC50 fibroblasts/IC50 on PC3
Description: as §1, §2, §3, §4

PANC1 = assay: Antiproliferative assay, PANC1; assay type: cell-based, human; details: for IC50: Homo sapiens, PANC-1, 48 h incubation, average of three assays, standard error ± 0.5 μM
Description: as §1, §2, §3, §4

HCT 116 = assay: Antiproliferative assay, HCT 116; assay type: cell-based, human; details: for IC50: Homo sapiens, HCT-116, 48 h incubation, average of three assays, standard error ± 0.5 μM; for Selectivity Index (SI) HCT 116: SI = IC50 fibroblasts/IC50 on HCT 116
Description: as §1, §2, §3, §4

Caco2 = assay: Antiproliferative assay, Caco2; assay type: cell-based, human; details: Homo sapiens, Caco-2; 48 h incubation; average of three assays, standard error ± 0.5 μM
Description: as §1, §2, §3, §4

MDA MB231 = assay: Antiproliferative assay, MDA MB231; assay type: cell-based, human; details: for IC50: Homo sapiens, MDA-MB-231, 48 h incubation, average of three assays, standard error ± 0.5 μM; for Selectivity Index (SI) MDA MB231: SI = IC50 fibroblasts/IC50 on MDA MB231
Description: as §1, §2, §3, §4

Fibroblasts = assay: Antiproliferative assay, diploid skin fibroblasts (normal cells); assay type: cell-based; details: for IC50: Fibroblast, 48 h incubation, average of three assays, standard error ± 0.5 μM
Description: as §1, §2, §3, §4

tumor cell lines = assay: Antiproliferative assay, panel of tumoral cell lines; assay type: cell-based; details: Homo sapiens, 48 h, summary over tumoral cell lines of Table 3, 48 h; read-out: IC50 on tumor cell lines (span over the panel)
Description: as §1, §2, §3, §4

[1] = Antiproliferative assay, Caco2; assay type: cell-based, human; details: human, Caco-2; SI = IC50 fibroblasts/IC50 on Caco2; read-out: Selectivity Index (SI) Caco2
Description: as §1, §2, §3, §4

[2] = test system: zebrafish Danio rerio embryos; assay: Zebrafish embryo toxicity assay (Zebratox, FET)
Description: Fertilized eggs at 24–48 h post-fertilization (hpf) were selected and transferred to a 96-well plate (1 embryo/well). […] DMSO (0.6%) was used as vehicle control for the test compounds. The exposure duration continued up to 72 hpf because it is the endpoint of embryonic development [41]. The dead embryos were eliminated, and the fertilized eggs were imaged at 0, 24, 48 and 72 hpf.
Eggs were collected 2 h post-fertilization (hpf) and kept in glass Petri dishes containing water for subsequent examination under a binocular microscope to confirm fertilization. […] Chemical treatments were performed by adding DMSO alone (negative control), or test molecule. These experiments were performed in four technical replicates.
The experiments were performed using a Zeiss inverted fluorescent microscope (Observer Z1). The zebrafish toxicological test (Zebratox) was realized as follows: the 24 h post-fertilization embryos were arrayed by hand with one embryo per well in black-walled 96-well microplates for fluorescence assays (Perkin Elmer, Waltham, MA, USA). The embryos were treated before hatching from 0 to 72 h post-fertilization. The 20 mM DMSO stock chemicals were diluted in fish water and added to the wells at final concentrations from 0.0 2µM to 5 μM. The negative control (0.25% DMSO) was added to each replicate plate. The experiments were realized in triplicate in three independent plates. […] The zebrafish fertilized eggs were provided by the ImPACcell-Biosit Zebrafish facilities (Rennes, France).

SMILES	IC50 (Huh7 D12) [µM]	IC50 (MCF7) [µM]	IC50 (MDA MB468) [µM]	IC50 (PC3) [µM]	IC50 (PANC1) [µM]	IC50 (HCT 116) [µM]	IC50 (Caco2) [µM]	IC50 (MDA MB231) [µM]	IC50 (Fibroblasts) [µM]	Selectivity Index (SI) Huh7 D12 (Huh7 D12)	Selectivity Index (SI) MCF7 (MCF7)	Selectivity Index (SI) MDA MB468 (MDA MB468)	IC50 (tumor cell lines) [µM]	Selectivity Index (SI) PC3 (PC3)	Selectivity Index (SI) HCT 116 (HCT 116)	selectivity ratio at 48 h [1]	Selectivity Index (SI) MDA MB231 (MDA MB231)	effect on fibroblasts (healthy skin cell), in words (Fibroblasts)	also measured
CCN(CC)c1ccc2c(c1)Oc1ncn(/N=C/c3ccc(N(C)C)cc3)c(=N)c1C2 [10a]	> 25	> 25	> 25	> 25	> 25	> 25	> 25	> 25	> 25	–	–	–	–	–	–	–	–	–	–
CCN(CC)c1ccc2c(c1)Oc1ncn(/N=C/c3ccccc3O)c(=N)c1C2 [10b]	> 25	> 25	> 25	> 25	> 25	> 25	> 25	> 25	> 25	–	–	–	–	–	–	–	–	–	–
CCN(CC)c1ccc2c(c1)Oc1ncn(/N=C/c3ccccc3)c(=N)c1C2 [10c]	> 25	> 25	> 25	> 25	> 25	> 25	> 25	> 25	> 25	–	–	–	–	–	–	–	–	–	–
CN(C)c1ccc(/C=N/n2cnc3c(c2=N)Cc2ccccc2O3)cc1 [10d, (3E) 3-N-(4-Dimethylaminophenylmethylidene)amino-4-imino-3,5-dihydro-4H-chromeno[2,3-d]pyrimidine]	11	11	11	11	17	11	10	11	14	1.27	1.27	1.27	1 to 25	1.27	1.27	1.4	1.27	cytotoxic on fibroblasts	Selectivity Index (SI) PANC1 (PANC1; SI = IC50 fibroblasts/IC50 on PANC1): 0.82
COc1cccc2c1Oc1ncn(/N=C/c3ccc(N(C)C)cc3)c(=N)c1C2 [10g, (3E) 3-N-(4-Dimethylaminophenylmethylidene)amino-4-imino-9-methoxy-3,5-dihydro-4H-chromeno[2,3-d]pyrimidine]	6	10	18	16	–	24	10	> 25	11	1.83	1.1	0.61	1 to 25	0.69	0.46	1.1	< 0.44	cytotoxic on fibroblasts	–
CN(C)c1ccc(/C=N/n2cnc3c(c2=N)Cc2c(ccc4ccccc24)O3)cc1 [10j, (10E) 10-N-(4-Dimethylaminophenylmethylidene)amino-11-imino-11H-naphto[1′,2′:5,6]pyrano[2,3-d]pyrimidine]	6	10	18	16	–	24	10	> 25	11	1.83	1.1	0.61	1 to 25	0.69	0.46	1.1	< 0.44	cytotoxic on fibroblasts	–
COc1cccc2c1C(=O)c1c(O)c3c(c(O)c1C2=O)C[C@@](O)(C(=O)CO)C[C@@H]3O[C@H]1C[C@H](N)[C@H](O)[C@H](C)O1 [Doxorubicin, reference compound]	0.06	0.09	0.03	0.07	–	0.07	0.03	0.02	0.01	0.16	0.11	0.33	–	0.14	0.14	0.33	0.50	–	–
C#Cc1cccc(Nc2ncnc3cc(OCCOC)c(OCCOC)cc23)c1 [erlotinib, reference compound]	–	–	–	–	–	–	–	–	–	–	–	–	–	–	–	–	–	–	toxicity on zebrafish embryos ([2]; 1 μM dose, 72 hpf): no toxicity; hatching of the embryos ([2]; treatment for 48 and 72 hpf): complete hatching
